{"source": "patent US9771379B2", "about": "“N-(2-(2-amino-6-substituted-4,4a,5,6-tetrahydropyrano[3,4-d][1,3]OXAZIN-8a(8H)-yl)-thiazol-4-yl) amides” (Pfizer Inc., priority 2015, dated 2017)", "key": {"BACE1 enzyme": {"target": "BACE1 enzyme (Homo sapiens (Human), UniProt P56817)", "sequence (P56817 46-457)": "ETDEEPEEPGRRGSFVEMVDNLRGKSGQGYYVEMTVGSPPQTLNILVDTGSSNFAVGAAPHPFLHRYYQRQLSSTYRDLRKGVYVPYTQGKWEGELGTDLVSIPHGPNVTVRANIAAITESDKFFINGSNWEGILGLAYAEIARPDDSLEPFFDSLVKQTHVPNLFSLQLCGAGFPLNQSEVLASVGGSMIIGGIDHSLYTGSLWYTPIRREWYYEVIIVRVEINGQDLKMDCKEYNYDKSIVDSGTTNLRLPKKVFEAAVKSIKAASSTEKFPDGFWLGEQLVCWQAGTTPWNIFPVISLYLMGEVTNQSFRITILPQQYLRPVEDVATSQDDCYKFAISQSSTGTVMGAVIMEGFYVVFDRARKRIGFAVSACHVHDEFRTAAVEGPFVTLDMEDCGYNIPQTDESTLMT", "assay": "BACE1 Cell-Free Assay", "format": "biochemical", "settings": "for IC50: fluorescence polarization, synthetic APP substrate, pH 4.5; for biological activity: stated in words, used to assign absolute stereochemistry", "description": "This assay measures the inhibition of the beta-secretase enzyme as it cleaves a non-native peptide.\nA synthetic APP substrate that can be cleaved by beta-secretase having N-terminal biotin and made fluorescent by the covalent attachment of Oregon Green at the Cys residue is used to assay beta-secretase activity in the presence or absence of the inhibitory compounds. […] The BACE1 enzyme is affinity purified material from conditioned media of CHO-K1 cells that have been transfected with a soluble BACE construct (BACE1delta™96His). […] Plates are covered and incubated for 3 hours at 37° C. […] The activity of the beta-secretase enzyme is detected by changes in the fluorescence polarization that occur when the substrate is cleaved by the enzyme."}, "full length human BACE1": {"target": "full length human BACE1 (Homo sapiens (Human), UniProt P56817)", "sequence (P56817 46-501)": "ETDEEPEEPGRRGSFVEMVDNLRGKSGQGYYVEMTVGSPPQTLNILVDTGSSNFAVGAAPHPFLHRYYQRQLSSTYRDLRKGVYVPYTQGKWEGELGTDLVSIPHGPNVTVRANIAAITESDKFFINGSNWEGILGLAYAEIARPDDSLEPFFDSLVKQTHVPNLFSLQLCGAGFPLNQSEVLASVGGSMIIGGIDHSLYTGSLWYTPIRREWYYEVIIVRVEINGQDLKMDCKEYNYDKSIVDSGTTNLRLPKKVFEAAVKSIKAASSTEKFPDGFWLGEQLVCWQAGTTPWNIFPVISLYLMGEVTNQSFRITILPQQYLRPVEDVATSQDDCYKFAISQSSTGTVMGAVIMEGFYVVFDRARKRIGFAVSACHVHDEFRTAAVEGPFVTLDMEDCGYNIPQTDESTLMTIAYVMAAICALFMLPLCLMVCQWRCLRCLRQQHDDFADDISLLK", "assay": "BACE1 Scintillation Proximity Binding Assay (SPA)", "settings": "radioligand displacement, HEK cell membranes, pH 6.0", "description": "BACE1 Scintillation Proximity Binding Assay (SPA): The BACE1 binding assay measured beta-site amyloid precursor protein-cleaving enzyme (BACE) binding as a decrease in the counts of radioligand bound in a scintillation proximity assay (SPA). […] Full length human BACE1 over-expressed in HEK cells was prepared by Pfizer scientists. Frozen stock cell paste was reacted in 50 mM sodium acetate buffer (pH=6.0) containing 3H-(4aR,6R,8aS)-8a-(2,4-difluorophenyl)-6-(1-methyl-1H-pyrazol-4-yl)-4,4a,5,6,8,8a-hexahydropyrano[3,4-d][1,3]thiazin-2-amine ligand, SPA bead and 60 μM to 600 pM of test compound in an assay volume of 27 uL. The compound plate also contained positive (BACE inhibitor) and negative (DMSO) control wells. The binding was carried out at room temperature for 30 minutes and then the plates were read on a TriLux Microbeta reader to determine the number of counts bound. The raw data was converted to percent effect compared to positive and negative control wells and the compound concentrations and % effect values for tested compounds were plotted to determine the 50% effect (1050) with a four-parameter logistic dose response equation."}}, "data": [{"smiles": "NC1=N[C@@]2(c3nc(NC(=O)c4ccc(OC(F)F)cn4)cs3)CO[C@@H](C(F)(F)F)C[C@H]2CO1", "note": "[Example 12a, N-(2-((4aR,6R,8aR)-2-amino-6-(trifluoromethyl)-4,4a,5,6-tetrahydropyrano[3,4-d][1,3]oxazin-8a(8H)-yl)thiazol-4-yl)-5-(difluoromethoxy)picolinamide]", "values": [{"measurement": "IC50", "setting": "BACE1 enzyme", "value": 371, "unit": "nM"}]}, {"smiles": "C[C@H]1C[C@H]2COC(N)=N[C@@]2(c2nc(NC(=O)c3ncc(OC(F)F)cc3Cl)cs2)CO1", "note": "[Example 2, N-(2-((4aR,6S,8aR)-2-amino-6-methyl-4,4a,5,6-tetrahydropyrano[3,4-d][1,3]oxazin-8a(8H)-yl)thiazol-4-yl)-3-chloro-5-(difluoromethoxy)picolinamide]", "values": [{"measurement": "IC50", "setting": "BACE1 enzyme", "value": 123, "unit": "nM"}]}, {"smiles": "C[C@H]1C[C@H]2COC(N)=N[C@@]2(c2nc(NC(=O)c3ccc(OC(F)F)cn3)cs2)CO1", "note": "[Example 1, N-(2-((4aR,6S,8aR)-2-amino-6-methyl-4,4a,5,6-tetrahydropyrano[3,4-d][1,3]oxazin-8a(8H)-yl)thiazol-4-yl)-5-(difluoromethoxy)picolinamide]", "values": [{"measurement": "IC50", "setting": "BACE1 enzyme", "value": 214, "unit": "nM"}]}, {"smiles": "Cc1cc(OC(F)F)cnc1C(=O)Nc1csc([C@]23CO[C@@H](C)C[C@H]2COC(N)=N3)n1", "note": "[Example 3, N-(2-((4aR,6S,8aR)-2-amino-6-methyl-4,4a,5,6-tetrahydropyrano[3,4-d][1,3]oxazin-8a(8H)-yl)thiazol-4-yl)-5-(difluoromethoxy)-3-methylpicolinamide]", "values": [{"measurement": "IC50", "setting": "BACE1 enzyme", "value": 85, "unit": "nM"}]}, {"smiles": "NC1=N[C@@]2(c3nc(NC(=O)c4ccc(Cl)cn4)cs3)CO[C@@H](C(F)(F)F)C[C@H]2CO1", "note": "[Example 10a, N-(2-((4aR,6R,8aR)-2-amino-6-(trifluoromethyl)-4,4a,5,6-tetrahydropyrano[3,4-d][1,3]oxazin-8a(8H)-yl)thiazol-4-yl)-5-chloropicolinamide]", "values": [{"measurement": "IC50", "setting": "BACE1 enzyme", "value": 310, "unit": "nM"}, {"measurement": "biological activity", "setting": "BACE1 enzyme", "value": "active"}]}, {"smiles": "Cc1cc(OC(F)F)cnc1C(=O)Nc1csc([C@]23CO[C@@H](C)C[C@H]2CCOC(N)=N3)n1", "note": "[Example 5, N-(2-((5aR,7S,9aR)-2-amino-7-methyl-5,5a,6,7-tetrahydro-4H-pyrano[3,4-d][1,3]oxazepin-9a(9H)-yl)thiazol-4-yl)-5-(difluoromethoxy)-3-methylpicolinamide]", "values": [{"measurement": "IC50", "setting": "BACE1 enzyme", "value": 71, "unit": "nM"}]}, {"smiles": "NC1=N[C@@]2(c3nc(NC(=O)c4ncc(OC(F)F)cc4Cl)cs3)COC3(CCC3)C[C@H]2CO1", "note": "[Example 18, N-(2-((4a′R,8a′R)-2′-amino-4a′,5′-dihydro-4′H-spiro [cyclobutane-1,6′-pyrano[3,4-d][1,3]oxazin]-8a′(8′H)-yl)thiazol-4-yl)-3-chloro-5-(difluoromethoxy) picolinamide]", "values": [{"measurement": "IC50", "setting": "BACE1 enzyme", "value": 561, "unit": "nM"}]}, {"smiles": "Cc1cc(C#N)cnc1C(=O)Nc1csc([C@]23CO[C@@H](C(F)(F)F)C[C@H]2COC(N)=N3)n1", "note": "[Example 21, N-{2-[(4aR,6R,8aR)-2-amino-6-(trifluoromethyl)-4,4a,5,6-tetrahydropyrano [3,4-d][1,3]oxazin-8a(8H)-yl]-1,3-thiazol-4-yl}-5-cyano-3-methylpyridine-2-carboxamide]", "values": [{"measurement": "IC50", "setting": "full length human BACE1", "value": 5, "unit": "nM"}]}, {"smiles": "Cc1cc(C#N)cnc1C(=O)Nc1csc([C@]23COC4(CCC4)C[C@H]2COC(N)=N3)n1", "note": "[Example 19, N-(2-((4a′R,8a′R)-2′-amino-4a′,5′-dihydro-4′H-spiro [cyclobutane-1,6′-pyrano [3,4-d][1,3]oxazin]-8a′(8′H)-yl)thiazol-4-yl)-5-cyano-3-methylpicolinamide]", "values": [{"measurement": "IC50", "setting": "BACE1 enzyme", "value": 185, "unit": "nM"}]}, {"smiles": "NC1=N[C@@]2(c3nc(NC(=O)c4cnc(OC(F)F)cn4)cs3)COC3(CCC3)C[C@H]2CO1", "note": "[Example 17, N-(2-((4a′R,8a′R)-2′-amino-4a′,5′-dihydro-4′H-spiro [cyclobutane-1,6′-pyrano [3,4-d][1,3]oxazin]-8a′(8′H)-yl)thiazol-4-yl)-5-(difluoromethoxy)pyrazine-2-carboxamide]", "values": [{"measurement": "IC50", "setting": "BACE1 enzyme", "value": 2260, "unit": "nM"}]}, {"smiles": "Cc1cc(OC(F)F)cnc1C(=O)Nc1csc([C@]23CO[C@@H](C(F)(F)F)C[C@H]2COC(N)=N3)n1", "note": "[Example 11a, N-(2-((4aR,6R,8aR)-2-amino-6-(trifluoromethyl)-4,4a,5,6-tetrahydropyrano[3,4-d][1,3]oxazin-8a(8H)-yl)thiazol-4-yl)-5-(difluoromethoxy)-3-methylpicolinamide]", "values": [{"measurement": "IC50", "setting": "BACE1 enzyme", "value": 155, "unit": "nM"}]}, {"smiles": "NC1=N[C@]2(c3nc(NC(=O)c4ccc(OC(F)F)cn4)cs3)CO[C@H](C(F)(F)F)C[C@@H]2CO1", "note": "[Example 12b, N-(2-((4aS,6S,8aS)-2-amino-6-(trifluoromethyl)-4,4a,5,6-tetrahydropyrano[3,4-d][1,3]oxazin-8a(8H)-yl)thiazol-4-yl)-5-(difluoromethoxy)picolinamide]", "values": [{"measurement": "IC50", "setting": "BACE1 enzyme", "value": 15000, "unit": "nM"}]}, {"smiles": "C[C@H]1C[C@H]2[C@@H](C(F)(F)F)OC(N)=N[C@@]2(c2nc(NC(=O)c3ccc(OC(F)F)cn3)cs2)CO1", "note": "[Example 7, N-(2-((4S,4aR,6S,8aR)-2-amino-6-methyl-4-(trifluoromethyl)-4,4a,5,6-tetrahydropyrano[3,4-d][1,3]oxazin-8a(8H)-yl)thiazol-4-yl)-5-(difluoromethoxy)picolinamide]", "values": [{"measurement": "IC50", "setting": "BACE1 enzyme", "value": 112, "unit": "nM"}]}, {"smiles": "N#Cc1ccc(C(=O)Nc2csc([C@]34COC5(CCC5)C[C@H]3COC(N)=N4)n2)nc1", "note": "[Example 16, N-(2-((4a′R,8a′R)-2′-amino-4a′,5′-dihydro-4′H-spiro [cyclobutane-1,6′-pyrano [3,4-d][1,3]oxazin]-8a′(8′H)-yl)thiazol-4-yl)-5-cyano picolinamide]", "values": [{"measurement": "IC50", "setting": "BACE1 enzyme", "value": 395, "unit": "nM"}]}, {"smiles": "NC1=N[C@@]2(c3nc(NC(=O)c4ncc(OC(F)F)cc4Cl)cs3)CO[C@@H](C(F)(F)F)C[C@H]2CO1", "note": "[Example 13a, N-(2-((4aR,6R,8aR)-2-amino-6-(trifluoromethyl)-4,4a,5,6-tetrahydropyrano[3,4-d][1,3]oxazin-8a(8H)-yl)thiazol-4-yl)-3-chloro-5-(difluoromethoxy)picolinamide]", "values": [{"measurement": "IC50", "setting": "BACE1 enzyme", "value": 184, "unit": "nM"}, {"measurement": "biological activity", "setting": "BACE1 enzyme", "value": "active"}]}, {"smiles": "NC1=N[C@]2(c3nc(NC(=O)c4ncc(OC(F)F)cc4Cl)cs3)CO[C@H](C(F)(F)F)C[C@@H]2CO1", "note": "[Example 13b, N-(2-((4aS,6S,8aS)-2-amino-6-(trifluoromethyl)-4,4a,5,6-tetrahydropyrano[3,4-d][1,3]oxazin-8a(8H)-yl)thiazol-4-yl)-3-chloro-5-(difluoromethoxy)picolinamide]", "values": [{"measurement": "IC50", "setting": "BACE1 enzyme", "value": 6970, "unit": "nM"}, {"measurement": "biological activity", "setting": "BACE1 enzyme", "value": "inactive"}]}, {"smiles": "NC1=N[C@]2(c3nc(NC(=O)c4ccc(Cl)cn4)cs3)CO[C@H](C(F)(F)F)C[C@@H]2CO1", "note": "[Example 10b, N-(2-((4aS,6S,8aS)-2-amino-6-(trifluoromethyl)-4,4a,5,6-tetrahydropyrano[3,4-d][1,3]oxazin-8a(8H)-yl)thiazol-4-yl)-5-chloropicolinamide]", "values": [{"measurement": "IC50", "setting": "BACE1 enzyme", "value": 16700, "unit": "nM"}, {"measurement": "biological activity", "setting": "BACE1 enzyme", "value": "inactive"}]}, {"smiles": "Cc1cc(OC(F)F)cnc1C(=O)Nc1csc([C@@]23CO[C@H](C(F)(F)F)C[C@@H]2COC(N)=N3)n1", "note": "[Example 11b, N-(2-((4aS,6S,8aS)-2-amino-6-(trifluoromethyl)-4,4a,5,6-tetrahydropyrano[3,4-d][1,3]oxazin-8a(8H)-yl)thiazol-4-yl)-5-(difluoromethoxy)-3-methylpicolinamide]", "values": [{"measurement": "IC50", "setting": "BACE1 enzyme", "value": 10800, "unit": "nM"}]}, {"smiles": "C[C@H]1C[C@H]2[C@@H](CF)OC(N)=N[C@@]2(c2nc(NC(=O)c3ccc(OC(F)F)cn3)cs2)CO1", "note": "[Example 6, N-(2-((4S,4aR,6S,8aR)-2-amino-4-(fluoromethyl)-6-methyl-4,4a,5,6-tetrahydropyrano[3,4-d][1,3]oxazin-8a(8H)-yl)thiazol-4-yl)-5-(difluoromethoxy)picolinamide]", "values": [{"measurement": "IC50", "setting": "BACE1 enzyme", "value": 270, "unit": "nM"}]}, {"smiles": "C[C@H]1C[C@H]2CCOC(N)=N[C@@]2(c2nc(NC(=O)c3ccc(OC(F)F)cn3)cs2)CO1", "note": "[Example 4, N-(2-((5aR,7S,9aR)-2-amino-7-methyl-5,5a,6,7-tetrahydro-4H-pyrano[3,4-d][1,3]oxazepin-9a(9H)-yl)thiazol-4-yl)-5-(difluoromethoxy)picolinamide]", "values": [{"measurement": "IC50", "setting": "BACE1 enzyme", "value": 146, "unit": "nM"}]}, {"smiles": "Cc1cc(OC(F)F)cnc1C(=O)Nc1csc([C@]23COC4(CCC4)C[C@H]2COC(N)=N3)n1", "note": "[Example 15, N-(2-((4a′R,8a′R)-2′-amino-4a′,5′-dihydro-4′H-spiro[cyclobutane-1,6′-pyrano[3,4-d][1,3]oxazin]-8a′(8′H)-yl)thiazol-4-yl)-5-(difluoromethoxy)-3-methyl picolinamide]", "values": [{"measurement": "IC50", "setting": "BACE1 enzyme", "value": 370, "unit": "nM"}]}, {"smiles": "Cc1cc(OC(F)F)cnc1C(=O)Nc1csc([C@]23COC(C)(C)C[C@H]2COC(N)=N3)n1", "note": "[Example 9, N-(2-((4aR,8aR)-2-amino-6,6-dimethyl-4,4a,5,6-tetrahydropyrano[3,4-d][1,3]oxazin-8a(8H)-yl)thiazol-4-yl)-5-(difluoromethoxy)-3-methylpicolinamide]", "values": [{"measurement": "IC50", "setting": "BACE1 enzyme", "value": 475, "unit": "nM"}]}, {"smiles": "CC1(C)C[C@H]2COC(N)=N[C@@]2(c2nc(NC(=O)c3ccc(OC(F)F)cn3)cs2)CO1", "note": "[Example 8, N-(2-((4aR,8aR)-2-Amino-6,6-dimethyl-4,4a,5,6-tetrahydropyrano[3,4-d][1,3]oxazin-8a(8H)-yl)thiazol-4-yl)-5-(difluoromethoxy)picolinamide]", "values": [{"measurement": "IC50", "setting": "BACE1 enzyme", "value": 610, "unit": "nM"}]}]}
